Measurements: patent US20020160091A1, “Acesulfame salt, process for its preparation and its use” (priority 2001, published 2002)

Columns and labels:
[1] = known property named for comparison; cited from earlier work
[2] = known property named for comparison; cited from earlier work; remark: listed apart in the source
[3] = compared with acesulfame potassium salt

## CC1=CC(=O)NS(=O)(=O)O1.N [acesulfame ammonium salt]
Acesulfame ammonium versus acesulfame potassium
  difference found by the testers in extensive taste tests: no difference was found
[3]
  sweet taste: exactly the same pleasant sweet taste as the acesulfame potassium salt
  sweetening power: the same sweetening power as the acesulfame potassium salt
  sweetness profile: exactly the same sweetness profile

## CC(=O)O.N [ammonium acetate salt, ammonium acetate]
[1]
  hygroscopicity (comparison salt): hygroscopic

## Cl.N [ammonium chloride salt, ammonium chloride]
[2]
  salty-bitter taste (comparison salt): salty-bitter
